From patent publication US12202805B2, “Process for preparing (5S)-{[2-(4-carboxyphenyl)ethyl] |2-(2-{|3-chloro-4'-(trifluoromethyl)biphenyl-4-yl]methoxy}phenyl)ethyl]aminol-5,6,7,8-tetrahydroquinoline-2-carboxylic acid and its crystalline forms for use as pharmaceutically active compound” (Bayer Aktiengesellschaft, priority 2021, dated 2025)

Key:
[1] = system: Caco-2 cells; test: Caco-2 permeability test; type: in vitro ADME, human; conditions: 2 μM, 2 h at 37° C.
Method: E-3. Further Characterization E-3.1 Caco-2 Permeability Test
The in vitro permeation of a test compound across a Caco-2 cell monolayer is a well-established assay system to predict the permeability from the gastro-intestinal tract (1). The permeability of the compounds of the present invention in such Caco-2 cells was determined as described below:
Human caco-2 cells were seeded on 24-well insert plates and were allowed to grow for 14-16 days. For permeability studies, the test compounds were dissolved in DMSO and diluted to the final test concentration of 2 μM with transport buffer [Hanks' Buffered Salt Solution, Gibco/Invitrogen, further supplemented with glucose and HEPES]. For determination of the apical to basolateral permeability (PappA-B), the test compound solution was added to the apical side of the cell monolayer and transport buffer to the basolateral side of the monolayer; for determination of the basolateral to apical permeability (PappB-A), the test compound solution was added to the basolateral side of the cell monolayer and transport buffer to the apical side of the monolayer. Samples were taken from the donor compartment at the beginning of the experiment to confirm mass balance. After an incubation of 2 h at 37° C., samples were taken from both compartments. Samples were analyzed by LC-MS/MS, and the apparent permeability coefficients were calculated. Lucifer Yellow permeability was assayed for each cell monolayer to ensure cell monolayer integrity, and the permeability of Atenolol (low permeability marker) and Sulfasalazine (marker for active excretion) was determined for each batch as quality control.

[2] = system: thromboxane and hypoxia challenged rats, pigs, and dogs; test: Disease relevant animal models (thromboxane and hypoxia challenged), inhaled application, PAP; type: in vivo
[3] = system: healthy male subjects; test: E-2.1 bodyplethysmography: total specific airway resistance (sRaw) in healthy male subjects; type: in vivo, human
Method: Healthy White male subjects, aged 18 to 45 years and with a body mass index (BMI) above/equal 18.5 and below/equal 29.9 kg/m2 were treated in a clinical pharmacological phase I study on seven days with inhaled once daily doses of 480 μg or 1000 μg or 2000 μg (2 capsules of 1000 μg) (nominal dose) of dry powder formulations comprising example 2 or Placebo. The subjects inhaled the drug powder from capsules (see under C-1, e.g. tables 22 and 23) inserted into a handheld inhalation device by one deep inhalative breath. The dry powder formulation of the drug is dispersed into the airstream and fine particles are transported into the deep parts of the lung where it is intended to cause a vasodilation of the blood vessels in PH patients for a substantial reduction of increased blood pressure in the central pulmonary blood vessels in PAH patients or other subtypes of PH. This effect cannot be shown in subjects with healthy lungs. In addition inhaled drug causes a dilation of the bronchial airways and thus also improves disease states of lung diseases in PH patients with pathological bronchoconstriction. This effect was measured via bodyplethysmography as reduction of Specific Airway Resistance in healthy subjects. […]

[4] = system: patients with PAH or CTEPH; test: E-2.4 inhaled single doses in patients with PAH or CTEPH: PVR, mPAP (right heart catheterization), safety; type: in vivo, human
Method: E-2.4 Inhaled Administration of Single Doses to Patients with PAH or CTEPH to Investigate the Reduction of Pulmonary Vascular Resistance (PVR)
Patients with PAH or CTEPH aged 18 to 80 years were treated in a clinical phase 1b study with orally inhaled single doses* of 240 μg (2 capsules of 120 μg), 480 μg (1 capsule of 480 μg), 1000 μg (1 capsule of 1000 μg), 2000 μg (2 capsules of 1000 μg) or 4000 μg (4 capsules of 1000 μg) of a dry powder formulation comprising example 4 (see C-1, e.g. tables 17 and 20) inserted into a handheld inhalation device, inhaled by deep inhalative breath into the deep parts of the lung (*single dose means the administration of one dosage form/capsule as well as administration of two or more dosage forms/capsules simultaneously or consecutively within a short time period). The included patients had no background treatment with standard of care (SoC) medication for PAH or CTEPH (such as endothelin antagonists, prostanoids, phosphodiesterase type 5 inhibitor or soluble guanylate cyclase stimulators). Patients in this study underwent invasive right heart catheterization as medically indicated routine diagnostic. Primary objective of the study was to investigate the peak percent reduction from baseline in PVR. Patients had to have a baseline pulmonary artery pressure (mPAP) of ≥25 mmHg and a PVR of ≥400 dyn·sec·cm^−5 (5 Wood Units) and were not to show vaso-responsiveness to initial iNO inhalation testing to be included in the per protocol analysis. Plasma concentrations (pharmacokinetics) of the administered drug at several time points after administration were measured and safety and tolerability was assessed.
The study is divided into two parts, Part A and Part B. In Part A escalating aforementioned single doses were administered to patients without background treatment with standard of care (SoC) medication for PAH or CTEPH (such as endothelin antagonists, prostanoids, phosphodiesterase type 5 inhibitor or soluble guanylate cyclase stimulators). In Part B, after finalization of Part A, a selected dose from PartA will be tested in further patients without background SoC treatment (group 1) and additionally in patients on monotherapy with SoC (group 2) and on dual combination therapy with SoC (group 3).
The PVR is a derived parameter from parameters directly measured during the right heart catheterization procedure. The direct parameters included in the calculation are: mean pulmonary arterial pressure [mmHg](mPAP), pulmonary capillary wedge pressure [mmHg] (PCWP), and cardiac output [1/min] (CO). The PVR is calculated according to the formula: PVR [dyn*sec*cm^−5]=80*(mPAP˜PCWP)/CO.

O=C(O)c1ccc(CCN(CCc2ccccc2OCc2ccc(-c3ccc(C(F)(F)F)cc3)cc2Cl)[C@H]2CCCc3nc(C(=O)O)ccc32)cc1 [comparative example 11, (5S)-5-{[2-(4-carboxyphenyl)ethyl][2-(2-{[3-chloro-4′-(trifluoromethyl)[biphenyl]-4-yl]methoxy}phenyl)ethyl]amino}-5,6,7,8-tetrahydroquinoline-2-carboxylic acid]
efflux ratio [1]: does not show an efflux ratio | effect on elevated PAP [2]: selectively decreased elevated PAP

O=C(O)c1ccc(CCN(CCc2ccccc2OCc2ccc(-c3ccc(C(F)(F)F)cc3)cc2Cl)[C@H]2CCCc3nc(C(=O)O)ccc32)cc1 [example 2, (5S)—{[2-(4-Carboxyphenyl)ethyl][2-(2-{[3-chloro-4′-(trifluoromethyl)biphenyl-4-yl]methoxy}phenyl)-ethyl]amino}-5,6,7,8-tetrahydroquinoline-2-carboxylic acid as Monohydrate II]
total specific airway resistance ([3]; 480 μg, 0 D 06 H 00 M): 0.800 ± 0.187 kPa/sec | total specific airway resistance ([3]; 2000 μg, 7 D 06 H 00 M): 0.730 ± 0.151 kPa/sec

O=C(O)c1ccc(CCN(CCc2ccccc2OCc2ccc(-c3ccc(C(F)(F)F)cc3)cc2Cl)[C@H]2CCCc3nc(C(=O)O)ccc32)cc1 [example 4, (5S)—{[2-(4-Carboxyphenyl)ethyl][2-(2-{[3-chloro-4′-(trifluoromethyl)biphenyl-4-yl]methoxy}phenyl)-ethyl]amino}-5,6,7,8-tetrahydroquinoline-2-carboxylic acid as Monohydrate I]
changes of systemic blood pressure, heart rate and oxygen saturation ([4]; at any dose): did not represent a safety concern | tolerability ([4]; including the highest dose of 4000 μg): good tolerability | systemic cGMP ([4]; patients with PAH or CTEPH): Increase | duration of sustained effect with no decrease in response ([4]; until end of the measurement period): ≥ 3 h
